Values after ≈ are worked out from the molar mass of the structure shown. Where two headings read alike, the source gives them in different places.
How the values were obtained:
[1] = tested on: carbapenem sensitive Escherichia coli; assay: MIC by broth micro-dilution (CLSI), carbapenem sensitive E. coli; type: cell-based
[2] = tested on: carbapenem sensitive Pseudomonas aeruginosa; assay: MIC by broth micro-dilution (CLSI), carbapenem sensitive P. aeruginosa; type: cell-based
[3] = tested on: carbapenemase producing K. pneumoniae; assay: MIC by broth micro-dilution (CLSI), carbapenemase producing K. pneumoniae; type: cell-based, Klebsiella pneumoniae
[4] = tested on: methicillin-sensitive Staphylococcus aureus; assay: MIC by broth micro-dilution (CLSI), methicillin-sensitive S. aureus; type: cell-based; settings: MSSA S. aureus ATCC29213
[5] = Escherichia coli, ATCC25922, ESBL −ve E. coli ATCC25922, read-out: MIC
[6] = Pseudomonas aeruginosa, ATCC27853, Meropenem susceptible P. aeruginosa ATCC27853, read-out: MIC
[7] = Klebsiella pneumoniae, ATCCBAA1705, KPC-2 K. pneumoniae ATCC BAA-1705, read-out: MIC
[8] = Staphylococcus aureus, ATCC 29213 / MSSA, read-out: MIC

Structure (SMILES)	MIC [1, 5]	MIC [2, 6]	MIC [3, 7]	MIC [4, 8]	MIC ([1]; ESBL −ve E. coli ATCC25922)	MIC ([2]; Meropenem susceptible P. aeruginosa ATCC27853)	MIC ([3]; KPC-2 K. pneumoniae ATCC BAA-1705)	MIC [4]
C[C@@H](NC(=O)Cn1cnnn1)[C@H]1C(=O)N2C(C(=O)O)=C(S[C@@H]3CN[C@H](C(=O)N4CC[C@@H](N)[C@H]4CO)C3)[C@H](C)[C@H]12 [Example 522, (4R,5S,6R)-6-((R)-1-(2-(1H-tetrazol-1-yl)acetamido)ethyl)-3-((3S,5S)-5-((2S,3R)-3-amino-2-(hydroxymethyl)pyrrolidine-1-carbonyl)pyrrolidin-3-ylthio)-4-methyl-7-oxo-1-azabicyclo[3.2.0]hept-2-ene-2-carboxylic acid]	0.25 µg/mL (≈ 0.444 µM)	1 µg/mL (≈ 1.77 µM)	2 µg/mL (≈ 3.55 µM)	4 µg/mL (≈ 7.1 µM)				
C[C@@H](NC(=O)Cn1cnnn1)[C@H]1C(=O)N2C(C(=O)O)=C(S[C@@H]3CN[C@H](C(=O)N4CC[C@@H](N)[C@H]4CO)C3)[C@H](C)[C@H]12 [Example 523, (4R,5S,6R)-6-((R)-1-(2-(1H-tetrazol-1-yl)acetamido)ethyl)-3-((3S,5S)-5-((2S,3R)-3-amino-2-(hydroxymethyl)pyrrolidine-1-carbonyl)pyrrolidin-3-ylthio)-4-methyl-7-oxo-1-azabicyclo[3.2.0]hept-2-ene-2-carboxylic acid]					0.125 µg/mL (≈ 0.222 µM)	1 µg/mL (≈ 1.77 µM)	1 µg/mL (≈ 1.77 µM)	2 µg/mL (≈ 3.55 µM)
C[C@@H](NC(=O)Cn1cnnn1)[C@H]1C(=O)N2C(C(=O)O)=C(S[C@@H]3CN[C@H](C(=O)N4C[C@H]5CNC[C@@]5(CO)C4)C3)[C@H](C)[C@H]12 [Example 524, (4R,5S,6R)-6-((R)-1-(2-(1H-tetrazol-1-yl)acetamido)ethyl)-3-((3S,5S)-5-((3aR,6aR)-3a-(hydroxymethyl)octahydropyrrolo[3,4-c]pyrrole-2-carbonyl)pyrrolidin-3-ylthio)-4-methyl-7-oxo-1-azabicyclo[3.2.0]hept-2-ene-2-carboxylic acid]	0.25 µg/mL (≈ 0.424 µM)	1 µg/mL (≈ 1.7 µM)	2 µg/mL (≈ 3.39 µM)	4 µg/mL (≈ 6.78 µM)				
C[C@@H](NC(=O)Cn1cnnn1)[C@H]1C(=O)N2C(C(=O)O)=C(S[C@@H]3CN[C@H](C(=O)N4C[C@@H]5CNC[C@]5(CO)C4)C3)[C@H](C)[C@H]12 [Example 525, (4R,5S,6R)-6-((R)-1-(2-(1H-tetrazol-1-yl)acetamido)ethyl)-3-((3S,5S)-5-((3aS,6aS)-3a-(hydroxymethyl)octahydropyrrolo[3,4-c]pyrrole-2-carbonyl)pyrrolidin-3-ylthio)-4-methyl-7-oxo-1-azabicyclo[3.2.0]hept-2-ene-2-carboxylic acid]	0.25 µg/mL (≈ 0.424 µM)	0.5 µg/mL (≈ 0.848 µM)	2 µg/mL (≈ 3.39 µM)	4 µg/mL (≈ 6.78 µM)				
C[C@@H](NC(=O)Cn1cnnn1)[C@H]1C(=O)N2C(C(=O)O)=C(S[C@@H]3CN[C@H](C(=O)N4C[C@H]5C[C@H](N)C[C@@]5(CO)C4)C3)[C@H](C)[C@H]12 [Example 526, (4R,5S,6R)-6-((R)-1-(2-(1H-tetrazol-1-yl)acetamido)ethyl)-3-((3S,5S)-5-((3aS,5S,6aS)-5-amino-3a-(hydroxymethyl)octahydrocyclopenta[c]pyrrole-2-carbonyl)pyrrolidin-3-ylthio)-4-methyl-7-oxo-1-azabicyclo[3.2.0]hept-2-ene-2-carboxylic acid]	0.25 µg/mL (≈ 0.414 µM)	1 µg/mL (≈ 1.66 µM)	2 µg/mL (≈ 3.31 µM)	4 µg/mL (≈ 6.63 µM)				
C[C@@H](NC(=O)Cn1cnnn1)[C@H]1C(=O)N2C(C(=O)O)=C(S[C@@H]3CN[C@H](C(=O)N4C[C@@H]5C[C@@H](N)C[C@]5(CO)C4)C3)[C@H](C)[C@H]12 [Example 529, (4R,5S,6R)-6-((R)-1-(2-(1H-tetrazol-1-yl)acetamido)ethyl)-3-((3S,5S)-5-((3aR,5R,6aR)-5-amino-3a-(hydroxymethyl)octahydrocyclopenta[c]pyrrole-2-carbonyl)pyrrolidin-3-ylthio)-4-methyl-7-oxo-1-azabicyclo[3.2.0]hept-2-ene-2-carboxylic acid]	0.25 µg/mL (≈ 0.414 µM)	1 µg/mL (≈ 1.66 µM)	2 µg/mL (≈ 3.31 µM)	4 µg/mL (≈ 6.63 µM)				
C[C@@H](NC(=O)Cn1cnnn1)[C@H]1C(=O)N2C(C(=O)O)=C(S[C@@H]3CN[C@H](C(=O)N4C[C@H]5C[C@H](N)C[C@@]5(CN)C4)C3)[C@H](C)[C@H]12 [Example 538, (4R,5S,6R)-6-((R)-1-(2-(1H-tetrazol-1-yl)acetamido)ethyl)-3-((3S,5S)-5-((3aR,5S,6aS)-5-amino-3a-(aminomethyl)octahydro-cyclopenta[c]pyrrole-2-carbonyl)pyrrolidin-3-ylthio)-4-methyl-7-oxo-1-azabicyclo[3.2.0]hept-2-ene-2-carboxylic acid]	0.25 µg/mL (≈ 0.415 µM)	1 µg/mL (≈ 1.66 µM)	2 µg/mL (≈ 3.32 µM)	4 µg/mL (≈ 6.64 µM)				
C[C@@H](NC(=O)Cn1cnnn1)[C@H]1C(=O)N2C(C(=O)O)=C(S[C@@H]3CN[C@H](C(=O)N4CC5CNCC5C4)C3)[C@H](C)[C@H]12 (stereo partly drawn) [Example 540, (4R,5S,6R)-6-((R)-1-(2-(1H-tetrazol-1-yl)acetamido)ethyl)-4-methyl-3-((3S,5S)-5-(octahydropyrrolo-[3,4-c]pyrrole-2-carbonyl)pyrrolidin-3-ylthio)-7-oxo-1-azabicyclo[3.2.0]hept-2-ene-2-carboxylic acid]	0.25 µg/mL (≈ 0.447 µM)	1 µg/mL (≈ 1.79 µM)	2 µg/mL (≈ 3.57 µM)	4 µg/mL (≈ 7.15 µM)				
C[C@@H](NC(=O)Cn1cnnn1)[C@H]1C(=O)N2C(C(=O)O)=C(S[C@@H]3CN[C@H](C(=O)N4CC5C[C@H]6C[C@@]5(CN6)C4)C3)[C@H](C)[C@H]12 (stereo partly drawn) [Example 541, (4R,5S,6R)-6-((R)-1-(2-(1H-tetrazol-1-yl)acetamido)ethyl)-3-((3S,5S)-5-((1R,7S)-3,8-Diaza-tricyclo[5.2.1.01,5]decane-3-carbonyl)pyrrolidin-3-ylthio)-4-methyl-7-oxo-1-azabicyclo[3.2.0]hept-2-ene-2-carboxylic acid]	0.25 µg/mL (≈ 0.427 µM)	1 µg/mL (≈ 1.71 µM)	1 µg/mL (≈ 1.71 µM)	2 µg/mL (≈ 3.41 µM)				
C[C@@H](NC(=O)Cn1cnnn1)[C@H]1C(=O)N2C(C(=O)O)=C(S[C@@H]3CN[C@H](C(=O)N4CC5CC(N)CC5C4)C3)[C@H](C)[C@H]12 (stereo partly drawn) [Example 543, (4R,5S,6R)-6-((R)-1-(2-(1H-tetrazol-1-yl)acetamido)ethyl)-3-((3S,5S)-5-(5-aminooctahydrocyclopenta[c]pyrrole-2-carbonyl)pyrrolidin-3-ylthio)-4-methyl-7-oxo-1-azabicyclo[3.2.0]hept-2-ene-2-carboxylic acid]	0.5 µg/mL (≈ 0.872 µM)	2 µg/mL (≈ 3.49 µM)	1 µg/mL (≈ 1.74 µM)	2 µg/mL (≈ 3.49 µM)				
C[C@@H](NC(=O)Cn1cnnn1)[C@H]1C(=O)N2C(C(=O)O)=C(S[C@@H]3CN[C@H](C(=O)N4C[C@@H](O)[C@H](NC(=N)N)C4)C3)[C@H](C)[C@H]12 [Example 544, (4R,5S,6R)-6-((R)-1-(2-(1H-tetrazol-1-yl)acetamido)ethyl)-3-((3S,5S)-5-((3R,4R)-3-guanidino-4-hydroxypyrrolidine-1-carbonyl)pyrrolidin-3-ylthio)-4-methyl-7-oxo-1-azabicyclo[3.2.0]hept-2-ene-2-carboxylic acid]	0.25 µg/mL (≈ 0.423 µM)	1 µg/mL (≈ 1.69 µM)	0.5 µg/mL (≈ 0.845 µM)	1 µg/mL (≈ 1.69 µM)				
C[C@@H](NC(=O)Cn1cnnn1)[C@H]1C(=O)N2C(C(=O)O)=C(S[C@@H]3CN[C@H](C(=O)N4C[C@H](O)[C@H](NC(=N)N)C4)C3)[C@H](C)[C@H]12 [Example 545, (4R,5S,6R)-6-((R)-1-(2-(1H-tetrazol-1-yl)acetamido)ethyl)-3-((3S,5S)-5-((3R,4S)-3-guanidino-4-hydroxypyrrolidine-1-carbonyl)pyrrolidin-3-ylthio)-4-methyl-7-oxo-1-azabicyclo[3.2.0)hept-2-ene-2-carboxylic acid]	0.125 µg/mL (≈ 0.211 µM)	1 µg/mL (≈ 1.69 µM)	0.5 µg/mL (≈ 0.845 µM)	1 µg/mL (≈ 1.69 µM)				
C[C@@H](NC(=O)Cn1cnnn1)[C@H]1C(=O)N2C(C(=O)O)=C(S[C@@H]3CN[C@H](C(=O)N4C[C@@H](O)[C@@H](NC(=N)N)C4)C3)[C@H](C)[C@H]12 [Example 546, (4R,5S,6R)-6-((R)-1-(2-(1H-tetrazol-1-yl)acetamido)ethyl)-3-((3S,5S)-5-((3S,4R)-3-guanidino-4-hydroxypyrrolidine-1-carbonyl)pyrrolidin-3-ylthio)-4-methyl-7-oxo-1-azabicyclo[3.2.0]hept-2-ene-2-carboxylic acid]	0.25 µg/mL (≈ 0.423 µM)	2 µg/mL (≈ 3.38 µM)	1 µg/mL (≈ 1.69 µM)	1 µg/mL (≈ 1.69 µM)				
C[C@@H](NC(=O)Cn1cnnn1)[C@H]1C(=O)N2C(C(=O)O)=C(S[C@@H]3CN[C@H](C(=O)N4CC5[C@H](O)[C@H](N)C[C@@]5(CO)C4)C3)[C@H](C)[C@H]12 (stereo partly drawn) [Example 547, (4R,5S,6R)-6-((R)-1-(2-(1H-tetrazol-1-yl)acetamido)ethyl)-3-((3S,5S)-5-((3aS,5R,6S)-5-amino-6-hydroxy-3a-(hydroxymethyl)octahydro-cyclopenta[c]pyrrole-2-carbonyl)pyrrolidin-3-ylthio)-4-methyl-7-oxo-1-azabicyclo-[3.2.0]-hept-2-ene-2-carboxylic acid]	0.5 µg/mL (≈ 0.807 µM)	2 µg/mL (≈ 3.23 µM)	2 µg/mL (≈ 3.23 µM)	4 µg/mL (≈ 6.45 µM)				
C[C@@H](NC(=O)Cn1cnnn1)[C@H]1C(=O)N2C(C(=O)O)=C(S[C@@H]3CN[C@H](C(=O)N4C[C@@H](O)[C@H](N)[C@H]4CO)C3)[C@H](C)[C@H]12 [Example 548, (4R,5S,6R)-6-((R)-1-(2-(1H-tetrazol-1-yl)acetamido)ethyl)-3-((3S,5S)-5-((2S,3R,4R)-3-amino-4-hydroxy-2-(hydroxymethyl)pyrrolidine-1-carbonyl)pyrrolidin-3-ylthio)-4-methyl-7-oxo-1-azabicyclo[3.2.0]hept-2-ene-2-carboxylic acid]	0.25 µg/mL (≈ 0.431 µM)	4 µg/mL (≈ 6.9 µM)	1 µg/mL (≈ 1.73 µM)	8 µg/mL (≈ 13.8 µM)				

— US11180504B2 (ORCHID PHARMA LTD., priority 2016, dated 2021)
